Several values for one entry are separate records, joined by “and”; a condition that tells them apart may be missing. Equal values may be shown once. Toxic doses and inconclusive results are not listed.
System: BDF1 mice, P388 leukemia ip, median survival T/C
Assay: NCI In Vivo Anticancer Drug Screen. Data for tumor model P388 Leukemia (intraperitoneal) in B6D2F1 (BDF1) mice
Settings: endpoint: median survival time, higher = longer survival
Procedure, shortened: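 Survival ratio, drug arm over vehicle arm, in mice with a transplanted tumour.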

[1] = dose: 6.25 mg/kg/injection, schedule: Q01DX009 (ip), vehicle: saline
[2] = dose: 12.5 mg/kg/injection, schedule: Q01DX009 (ip), vehicle: saline
[3] = dose: 25.0 mg/kg/injection, schedule: Q01DX009 (ip), vehicle: saline
[4] = dose: 25.0 mg/kg/injection, schedule: Q04DX003 (ip), vehicle: saline
[5] = dose: 50.0 mg/kg/injection, schedule: Q01DX009 (ip), vehicle: saline
[6] = dose: 50.0 mg/kg/injection, schedule: Q04DX003 (ip), vehicle: saline
[7] = dose: 100.0 mg/kg/injection, schedule: Q01DX009 (ip), vehicle: saline
[8] = dose: 100.0 mg/kg/injection, schedule: Q04DX003 (ip), vehicle: saline
[9] = dose: 50.0 mg/kg/injection, schedule: Q01DX009 (ip), vehicle: saline with Tween-80
[10] = dose: 100.0 mg/kg/injection, schedule: Q01DX009 (ip), vehicle: saline with Tween-80
[11] = dose: 200.0 mg/kg/injection, schedule: Q01DX009 (ip), vehicle: saline with Tween-80
[12] = dose: 12.5 mg/kg/injection, schedule: Q01DX009 (ip), vehicle: saline with Tween-80
[13] = dose: 25.0 mg/kg/injection, schedule: Q01DX009 (ip), vehicle: saline with Tween-80
[14] = dose: 100.0 mg/kg/injection, schedule: Q04DX003 (ip), vehicle: Klucel (hydroxypropylcellulose) (HPC)
[15] = dose: 100.0 mg/kg/injection, schedule: Q04DX003 (ip), vehicle: saline with Tween-80
[16] = dose: 200.0 mg/kg/injection, schedule: Q04DX003 (ip), vehicle: saline with Tween-80
[17] = dose: 400.0 mg/kg/injection, schedule: Q01DX009 (ip), vehicle: saline with Tween-80
[18] = dose: 400.0 mg/kg/injection, schedule: Q04DX003 (ip), vehicle: saline with Tween-80
[19] = dose: 12.5 mg/kg/injection, schedule: Q01DX009 (ip), vehicle: water
[20] = dose: 25.0 mg/kg/injection, schedule: Q01DX009 (ip), vehicle: water

CCc1ccc(C(=O)NN)cc1 was tested, and the T/C [1] was 100 % of control, the T/C [2] was 97 % of control and the T/C [3] was 103 % of control. For the same molecule, the T/C [4] was 94 % of control, the T/C [5] was 100 % of control and the T/C [6] was 92 % of control. For the same molecule, the T/C [7] was 124 % of control, the T/C [8] was 94 % of control and the T/C (dose: 200.0 mg/kg/injection, schedule: Q01DX009 (ip), vehicle: saline) was 90 % of control. For the same molecule, the T/C (dose: 200.0 mg/kg/injection, schedule: Q04DX003 (ip), vehicle: saline) was 94 % of control.

In the case of O=C1CSC(=S)N1, the T/C [9] is reported as 122 % of control, the T/C [10] is reported as 122 % of control and the T/C [11] is reported as 104 % of control.

In the case of CNC(=S)N/N=C(/C)CCC/C(C)=N/NC(=S)NC, the T/C (dose: 6.25 mg/kg/injection, schedule: Q01DX009 (ip), vehicle: saline with Tween-80) is reported as 106 % of control, the T/C [12] is reported as 108 % of control and the T/C [13] is reported as 99 % of control.

For CC(C)CCN(CCC(C)C)CC(O)c1cc(-c2ccc(C(F)(F)F)cc2)nc(-c2ccc(C(F)(F)F)cc2)c1 (stereo not given), the T/C [9] was 113 % of control, the T/C [10] was 106 % of control and the T/C [11] was 113 % of control.

For CN(C)Cc1c[nH]c2nccnc12, the T/C (dose: 3.12 mg/kg/injection, schedule: Q01DX009 (ip), vehicle: saline) was 95 % of control, the T/C [1] was 109 % of control and the T/C [2] was 101 % of control. The T/C [3] was 93 % of control, the T/C [4] was 99 % of control and the T/C [5] was 100 % of control. For the same molecule, the T/C [6] was 100 % of control and 101 % of control, the T/C [7] was 100 % of control and the T/C [8] was 92 % of control and 100 % of control.

CCOC(=O)C/C(C)=N/NC(=O)C(=O)N/N=C(\C)CC(=O)OCC was tested, and the T/C (dose: 75.0 mg/kg/injection, schedule: Q01DX009 (ip), vehicle: saline with Tween-80) was 113 % of control, the T/C (dose: 150.0 mg/kg/injection, schedule: Q01DX009 (ip), vehicle: saline with Tween-80) was 96 % of control and the T/C (dose: 300.0 mg/kg/injection, schedule: Q01DX009 (ip), vehicle: saline with Tween-80) was 96 % of control.

CC(NCCCSc1ccccc1)C(O)c1ccc(O)cc1 (stereo not given) was tested, and the T/C [9] was 99 % of control and 100 % of control and 105 % of control and the T/C [10] was 110 % of control and 114 % of control and 119 % of control.

Cc1nn(CCO)c(-c2ccccc2)c1-n1on1-c1c(C)nn(CCO)c1-c1ccccc1 was tested, and the T/C [9] was 101 % of control.

CC1NC(=O)C2Cc3ccc(O)c(c3)Oc3ccc(cc3)C(O)C(C(=O)N2C)N(C)C(=O)C(C)NC(=O)C(Cc2ccc(O)cc2)N(C)C(=O)C(C)NC1=O (stereo not given) was tested, and the T/C (dose: 1.0 mg/kg/injection, schedule: Q01DX009 (ip), vehicle: saline with Tween-80) was 98 % of control, the T/C (dose: 2.0 mg/kg/injection, schedule: Q01DX009 (ip), vehicle: saline with Tween-80) was 94 % of control and the T/C (dose: 4.0 mg/kg/injection, schedule: Q01DX009 (ip), vehicle: saline with Tween-80) was 107 % of control. For the same molecule, the T/C (dose: 8.0 mg/kg/injection, schedule: Q01DX009 (ip), vehicle: saline with Tween-80) was 110 % of control and the T/C (dose: 16.0 mg/kg/injection, schedule: Q01DX009 (ip), vehicle: saline with Tween-80) was 101 % of control.

With COC(=O)C12OCC34C(CC(C(C)=O)C(C)(CC(=O)O)C3C(O)C1O)OC(=O)C(OC(=O)/C=C(\C)C(C)C)C24 (stereo not given) the T/C (dose: 0.25 mg/kg/injection, schedule: Q01DX009 (ip), vehicle: saline) was 94 % of control, the T/C (dose: 0.5 mg/kg/injection, schedule: Q01DX009 (ip), vehicle: saline) was 92 % of control and the T/C (dose: 2.0 mg/kg/injection, schedule: Q01DX009 (ip), vehicle: saline) was 92 % of control. For the same molecule, the T/C (dose: 4.0 mg/kg/injection, schedule: Q01DX009 (ip), vehicle: saline) was 90 % of control.

With COC(=O)C1C(O)C(C)C(=O)C(C)/C=C\C=C(C)C(=O)Nc2c(C)c(OC(C)=O)c3c(c2O)C(=O)C(C)=C2OCOC(=C23)C(C)=CC(C)(O)C(O)C(C)C1O (stereo not given) the T/C (dose: 100.0 mg/kg/injection, schedule: Q01DX009 (ip), vehicle: Klucel (hydroxypropylcellulose) (HPC)) was 101 % of control, the T/C (dose: 200.0 mg/kg/injection, schedule: Q01DX009 (ip), vehicle: Klucel (hydroxypropylcellulose) (HPC)) was 101 % of control and the T/C (dose: 400.0 mg/kg/injection, schedule: Q01DX009 (ip), vehicle: Klucel (hydroxypropylcellulose) (HPC)) was 101 % of control.

CCOC(=O)N1Cc2cc3ccccc3nc2C1CC(=O)O (stereo not given) was tested, and the T/C [14] was 100 % of control, the T/C (dose: 200.0 mg/kg/injection, schedule: Q04DX003 (ip), vehicle: Klucel (hydroxypropylcellulose) (HPC)) was 100 % of control and the T/C (dose: 400.0 mg/kg/injection, schedule: Q04DX003 (ip), vehicle: Klucel (hydroxypropylcellulose) (HPC)) was 104 % of control.

With CCOC(=O)C1CC1Cc1ccccc1 (stereo not given) the T/C [10] was 108 % of control, the T/C [15] was 104 % of control and the T/C [11] was 108 % of control. The T/C [16] was 108 % of control, the T/C [17] was 120 % of control and the T/C [18] was 113 % of control.

c1ccc(-c2ncnc3c2Cc2ccccc2-3)cc1 was tested, and the T/C [10] was 104 % of control, the T/C [15] was 100 % of control and the T/C [11] was 104 % of control. For the same molecule, the T/C [16] was 100 % of control, the T/C [17] was 91 % of control and the T/C [18] was 109 % of control.

For C[CH2][Sn]([CH2]C)([CH2]C)[NH]S(=O)(=O)c1ccc(C)cc1, the T/C (dose: 0.39 mg/kg/injection, schedule: Q01DX009 (ip), vehicle: Klucel (hydroxypropylcellulose) (HPC)) was 100 % of control, the T/C (dose: 0.78 mg/kg/injection, schedule: Q01DX009 (ip), vehicle: Klucel (hydroxypropylcellulose) (HPC)) was 115 % of control and the T/C (dose: 3.12 mg/kg/injection, schedule: Q01DX001 (ip), vehicle: Klucel (hydroxypropylcellulose) (HPC)) was 100 % of control. The T/C (dose: 6.25 mg/kg/injection, schedule: Q01DX001 (ip), vehicle: Klucel (hydroxypropylcellulose) (HPC)) was 90 % of control, the T/C (dose: 12.5 mg/kg/injection, schedule: Q01DX001 (ip), vehicle: Klucel (hydroxypropylcellulose) (HPC)) was 90 % of control and the T/C (dose: 18.0 mg/kg/injection, schedule: Q01DX001 (ip), vehicle: Klucel (hydroxypropylcellulose) (HPC)) was 104 % of control.

With Cn1c(CC(O)(C(F)(F)Cl)C(F)(F)Cl)cc(=O)n1-c1ccccc1 the T/C [15] was 100 % of control and the T/C [16] was 100 % of control.

In the case of O=C1c2ccccc2C(=O)N1CC[P+](c1ccc(Cl)cc1)(c1ccc(Cl)cc1)c1ccc(Cl)cc1, the T/C (dose: 0.78 mg/kg/injection, schedule: Q01DX009 (ip), vehicle: water) is reported as 103 % of control, the T/C (dose: 1.56 mg/kg/injection, schedule: Q01DX009 (ip), vehicle: water) is reported as 103 % of control and the T/C (dose: 3.13 mg/kg/injection, schedule: Q01DX009 (ip), vehicle: water) is reported as 103 % of control. For the same molecule, the T/C (dose: 6.25 mg/kg/injection, schedule: Q01DX009 (ip), vehicle: water) was 110 % of control, the T/C [19] was 103 % of control and the T/C [20] was 103 % of control.

With O=C(Nc1ccc(-c2cn3ccccc3n2)cc1)c1cc(Br)ccc1O the T/C [12] was 100 % of control, the T/C [13] was 91 % of control and the T/C [9] was 107 % of control.

For Cn1c(CS)nc2ccccc21, the T/C (dose: 12.5 mg/kg/injection, schedule: Q04DX003 (ip), vehicle: Klucel (hydroxypropylcellulose) (HPC)) was 104 % of control, the T/C (dose: 25.0 mg/kg/injection, schedule: Q04DX003 (ip), vehicle: Klucel (hydroxypropylcellulose) (HPC)) was 102 % of control and the T/C (dose: 50.0 mg/kg/injection, schedule: Q04DX003 (ip), vehicle: Klucel (hydroxypropylcellulose) (HPC)) was 105 % of control. For the same molecule, the T/C [14] was 96 % of control.

For COC(=O)C(CO)NC(=O)OCc1ccccc1 (stereo not given), the T/C [19] was 100 % of control, the T/C [20] was 100 % of control and the T/C (dose: 50.0 mg/kg/injection, schedule: Q01DX009 (ip), vehicle: water) was 96 % of control. For the same molecule, the T/C (dose: 100.0 mg/kg/injection, schedule: Q01DX009 (ip), vehicle: water) was 96 % of control and the T/C (dose: 200.0 mg/kg/injection, schedule: Q01DX009 (ip), vehicle: water) was 100 % of control.

In the case of Nc1cccnc1, the T/C (dose: 5.0 mg/kg/injection, schedule: Q01DX009 (ip), vehicle: saline) is reported as 100 % of control and the T/C (dose: 10.0 mg/kg/injection, schedule: Q01DX009 (ip), vehicle: saline) is reported as 110 % of control.

With CCCCCCCCCCCCCCCCCCNC(=O)Nc1ccc(CC)cc1 the T/C [15] was 90 % of control, the T/C [16] was 104 % of control and the T/C [18] was 95 % of control.

Cc1ccc(S(=O)(=O)OCCN(CCOS(=O)(=O)c2ccc(C)cc2)c2ccc(C=O)cc2)cc1 was tested, and the T/C (dose: 66.0 mg/kg/injection, schedule: Q04DX003 (ip), vehicle: saline with Tween-80) was 191 % of control, the T/C [15] was 250 % of control and the T/C (dose: 150.0 mg/kg/injection, schedule: Q04DX003 (ip), vehicle: saline with Tween-80) was 204 % of control.

— PubChem BioAssay AID328 (DTP/NCI, 2004)
